The source made the active and inactive calls. No cut-off for these calls is given here.
What was measured:
[1] = test system: Human alphaherpesvirus 1; test: Antiviral activity in vitro against Herpes simplex virus type 1 (HSV-1); NA is not active uM; type: functional, organism-based
[2] = test system: Human alphaherpesvirus 1; test: Antiviral activity in vitro against Herpes simplex virus type 1 (HSV-1); type: functional; details: read-out: ED50 (the source's name)

Structure (SMILES)	ED50 [1]	EC50 [2] [µM]
[N-]=[N+]=N[C@@H]1C(n2ccc(N)nc2=O)CC(CO)[C@@H]1O (some centres not stated)	inactive	–
Nc1ccn(C2CC(CO)[C@H](O)[C@@H]2N)c(=O)n1 (some centres not stated)	–	50
